Source: publication PMC10535624, “Curcuminoid Chalcones: Synthesis, Stability, and New Neuroprotective and Sonosensitising Activities” (Pharmaceuticals, 2023)

What was measured:
[1] = target: BChE (Homo sapiens, UniProt P06276); format: biochemical; conditions: samples 3 mM/dm^3 in DMSO, 0.035 mL; mean ± SEM, n = 3
[2] = Hydroxyl radical antioxidant capacity (HORAC); conditions: samples 1 mg/mL DMSO; mean ± SEM, n = 3
[3] = test system: SCC-25 cells; test: Sonodynamic cytotoxicity, MTT test; format: cell-based, human; conditions: 40 µM; for Reduction of viability of SCC-25 cells, compound combined with US: 8 h, then US 3 min, 3 MHz, 0.8 W/cm^2, MTT 6 h later, compared to untreated cells
[4] = target: T1, glutathione reductase (GR) (Homo sapiens, UniProt P00390); test: Effect on GR activity; format: biochemical; conditions: samples 3 mM/dm^3 in DMSO; mean ± SEM, n = 3
T1 sequence (P00390 44-522): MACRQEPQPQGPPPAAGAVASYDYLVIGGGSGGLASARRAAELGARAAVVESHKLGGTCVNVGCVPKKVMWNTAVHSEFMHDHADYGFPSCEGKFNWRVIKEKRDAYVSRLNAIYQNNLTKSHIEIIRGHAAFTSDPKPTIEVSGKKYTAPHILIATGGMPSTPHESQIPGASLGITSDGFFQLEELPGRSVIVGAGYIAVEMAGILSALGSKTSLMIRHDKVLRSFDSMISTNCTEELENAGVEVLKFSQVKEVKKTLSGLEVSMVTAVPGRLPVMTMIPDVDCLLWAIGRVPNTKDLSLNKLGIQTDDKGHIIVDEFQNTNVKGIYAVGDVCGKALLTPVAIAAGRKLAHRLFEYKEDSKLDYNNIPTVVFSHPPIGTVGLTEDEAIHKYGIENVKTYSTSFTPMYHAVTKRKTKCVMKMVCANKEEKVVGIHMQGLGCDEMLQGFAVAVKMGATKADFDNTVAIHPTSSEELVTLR
Protocol: (§1) We decided to extend the study by measuring the compounds’ ability to inhibit glutathione reductase (GR) and GPx activities, the human cells’ main endogenous enzymatic defence systems. Therefore, we checked the influence of some curcuminoid chalcones on GR and GPx using in vitro spectroscopic methods (Table 2). Moreover, the effects of curcuminoid chalcones on CAT activity were estimated (Table 2).
(§2) The samples were dissolved in DMSO (Sigma D4540) to obtain a concentration of 3 mM/dm^3.
(§3) The analyses were performed strictly as described by Studzińska-Sroka et al..

[5] = target: T2, catalase (CAT) (Aspergillus niger, UniProt P55303); test: Effect on CAT activity; format: biochemical; conditions: samples 3 mM/dm^3 in DMSO, 0.01 mL; mean ± SEM, n = 3
T2 construct: purchased Sigma C3515
Protocol: as §2
The method used by Watanabe et al. was used with the following modifications. The reaction mixture was composed of 0.02 mL of EDTA solution (56.5 mM), 0.01 mL of ^the sample, 0.02 mL of 3% H2O2 solution (Sigma H1009), and 0.02 mL of catalase solution (4000-fold diluted, Sigma C3515) (all reagents except the tested sample were diluted in TRIS buffer, pH 7.0, 1 mol/dm^3). The volume was completed to 0.31 mL by the same buffer solution. In a blank sample, DMSO (Sigma D4540) replaced the tested sample. The background of the sample was measured in a mixture composed of 0.01 mL of the sample completed to 0.31 mL by the buffer. The absorbance was read at 240 nm directly after the mixing and after 5 min of incubation (room temperature). The decreased absorbance (depletion of H2O2) in the tested and blank samples was compared. The calibration curve was produced using eleven H2O2 solutions (0.5693–5.693 mM/dm^3). The results are expressed in % inhibition and as H2O2 depletion (mmol of depleted H2O2/dm^3 min).

[6] = test system: glutathione peroxidase (GPx); test: Effect on GPx activity; format: biochemical; conditions: samples 3 mM/dm^3 in DMSO; mean ± SEM, n = 3
Protocol: as §1, §2, §3

[7] = test system: FaDu cells; test: Sonodynamic cytotoxicity, MTT test; format: cell-based, human; conditions: 40 µM, 8 h, then US 3 min, 3 MHz, 0.8 W/cm^2; MTT 6 h later; compared to untreated cells
Protocol: The cytotoxic effect and sonosensitising properties of selected synthesised chalcone derivatives were evaluated on human SCC-25 tongue and FaDu throat cancer cell lines using the MTT test (Figure 5 and Figure 6).
SCC-25 and FaDu human squamous cell carcinoma cell lines were purchased from the American Type Culture Collection (ATCC). The cells were cultivated in an incubator under optimal culture conditions (temperature: 37 °C; humidity: 95%; carbon dioxide content: 5%). The SCC-25 cell line was cultured in phenol red-free DMEM:F-12 medium complemented with 10% FBS, 2.5 mM L-glutamine, penicillin (100 U/mL), and streptomycin (0.1 mg/mL). The FaDu cells were maintained in phenol red-free Eagle’s Minimum Essential Medium (EMEM) supplemented with 10% fetal bovine serum (FBS), 2.5 mM L-glutamine, penicillin (100 U/mL), and streptomycin (0.1 mg/mL). For the experiments, confluent stock cultures were harvested using the trypsin–EDTA solution and seeded in 35-mm-diameter Petri plates at a density of 1 × 10^6. They were allowed to attach overnight, and the tested compounds were then added at a concentration of 40 µM. Control cells were maintained under the same conditions with 0.1% DMSO. […] The absorbance was measured using an Elx-800 plate reader (BioTek, Bad Friedrichshall, Germany) at 570 nm (reference wavelength 650 nm).

[8] = target: T3, COX-2 (Homo sapiens, UniProt P35354); test: Effect on COX-2 activity; format: biochemical; conditions: samples 3 mM/dm^3 in DMSO, 0.02 mL; mean ± SEM, n = 3
T3 sequence (P35354 18-604): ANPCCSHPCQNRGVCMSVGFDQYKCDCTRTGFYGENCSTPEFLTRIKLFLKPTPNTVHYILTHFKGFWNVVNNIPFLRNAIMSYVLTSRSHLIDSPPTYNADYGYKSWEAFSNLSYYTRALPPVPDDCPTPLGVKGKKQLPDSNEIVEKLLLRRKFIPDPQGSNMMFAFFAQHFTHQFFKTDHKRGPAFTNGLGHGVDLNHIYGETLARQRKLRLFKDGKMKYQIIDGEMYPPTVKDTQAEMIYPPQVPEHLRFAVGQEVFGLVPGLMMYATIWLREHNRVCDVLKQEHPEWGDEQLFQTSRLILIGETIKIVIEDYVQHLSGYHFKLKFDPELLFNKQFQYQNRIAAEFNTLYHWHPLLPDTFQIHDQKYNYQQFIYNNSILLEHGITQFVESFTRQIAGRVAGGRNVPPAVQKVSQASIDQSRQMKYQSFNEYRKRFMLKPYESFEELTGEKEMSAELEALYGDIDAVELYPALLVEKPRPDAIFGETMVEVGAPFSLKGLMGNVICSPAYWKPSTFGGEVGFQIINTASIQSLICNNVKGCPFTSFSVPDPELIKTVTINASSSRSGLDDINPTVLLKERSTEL

[9] = target: AChE (Homo sapiens, UniProt P22303); test: Effect on AChE activity (modified Ellman's method); format: biochemical; conditions: samples 3 mM/dm^3 in DMSO, 0.035 mL; mean ± SEM, n = 3
Description: Neurodegenerative diseases are associated with the progressive damage of neurons. During the development of these diseases, there is a loss of nerve cells and a deficiency of […], serotonin, and norepinephrine levels. The ability to inhibit acetyl- (AChE) and butyrylcholinesterase (BChE) activities is seen, among others, in organophosphorus compounds, carbamate insecticides, phenoxyacetic pesticides, and hydrogen peroxide, as well as aliphatic ketones with the carbons C4–C9, e.g., 2,5-hexandione. AChE and BChE show differences in their susceptibility to inhibitors, behaviour in situations involving excess substrate, or substrate binding specificity. Unlike, other esterases, both enzymes hydrolyse choline esters at very high speeds. Thus, in our work, the modified Elman’s method was used to investigate the anti-AChE and anti-BChE effects of curcuminoid chalcone.
as §2
The analysis was performed strictly as described by Studzińska-Sroka et al., except that the volume of the tested samples added to the reaction mixture was 0.035 mL.

[10] = temperatures below 30 °C ref 43; cited from earlier work

T2 sequence (P55303 whole entry): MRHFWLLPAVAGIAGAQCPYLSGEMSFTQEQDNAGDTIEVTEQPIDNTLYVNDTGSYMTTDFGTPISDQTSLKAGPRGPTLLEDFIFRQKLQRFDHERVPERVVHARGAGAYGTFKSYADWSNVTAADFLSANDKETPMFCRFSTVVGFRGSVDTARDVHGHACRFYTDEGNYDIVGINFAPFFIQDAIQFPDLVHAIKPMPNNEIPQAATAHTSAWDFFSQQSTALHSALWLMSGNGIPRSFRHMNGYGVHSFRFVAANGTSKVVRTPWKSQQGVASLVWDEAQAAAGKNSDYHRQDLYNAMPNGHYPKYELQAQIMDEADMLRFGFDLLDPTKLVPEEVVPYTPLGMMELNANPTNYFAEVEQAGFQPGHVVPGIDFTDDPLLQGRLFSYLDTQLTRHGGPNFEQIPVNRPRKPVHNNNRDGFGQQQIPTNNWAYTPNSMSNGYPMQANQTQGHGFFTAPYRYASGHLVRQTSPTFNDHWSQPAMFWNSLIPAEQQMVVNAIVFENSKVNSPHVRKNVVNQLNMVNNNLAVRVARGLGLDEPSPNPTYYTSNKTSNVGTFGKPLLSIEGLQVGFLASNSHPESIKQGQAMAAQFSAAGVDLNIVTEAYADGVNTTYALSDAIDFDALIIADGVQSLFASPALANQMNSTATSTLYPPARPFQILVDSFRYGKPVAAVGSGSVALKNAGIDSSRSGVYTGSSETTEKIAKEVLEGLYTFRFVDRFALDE
Sequence of BChE (P06276 29-602, species assumed): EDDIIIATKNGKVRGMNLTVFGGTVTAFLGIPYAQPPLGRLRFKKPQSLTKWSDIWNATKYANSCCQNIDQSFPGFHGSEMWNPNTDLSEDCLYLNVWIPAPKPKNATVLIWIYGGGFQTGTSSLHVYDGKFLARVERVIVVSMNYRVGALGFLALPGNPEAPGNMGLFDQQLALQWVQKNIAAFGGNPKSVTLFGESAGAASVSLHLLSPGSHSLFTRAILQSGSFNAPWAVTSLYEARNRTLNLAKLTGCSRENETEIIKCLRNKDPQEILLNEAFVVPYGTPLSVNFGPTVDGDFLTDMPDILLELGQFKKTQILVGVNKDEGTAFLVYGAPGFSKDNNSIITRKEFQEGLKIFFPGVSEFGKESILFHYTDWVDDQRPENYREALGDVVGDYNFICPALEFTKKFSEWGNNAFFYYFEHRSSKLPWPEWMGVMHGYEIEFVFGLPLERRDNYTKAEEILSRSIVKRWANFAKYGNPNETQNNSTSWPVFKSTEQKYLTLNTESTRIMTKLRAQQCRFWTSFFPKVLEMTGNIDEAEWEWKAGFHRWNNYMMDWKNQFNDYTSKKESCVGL
Sequence of AChE (P22303 32-614): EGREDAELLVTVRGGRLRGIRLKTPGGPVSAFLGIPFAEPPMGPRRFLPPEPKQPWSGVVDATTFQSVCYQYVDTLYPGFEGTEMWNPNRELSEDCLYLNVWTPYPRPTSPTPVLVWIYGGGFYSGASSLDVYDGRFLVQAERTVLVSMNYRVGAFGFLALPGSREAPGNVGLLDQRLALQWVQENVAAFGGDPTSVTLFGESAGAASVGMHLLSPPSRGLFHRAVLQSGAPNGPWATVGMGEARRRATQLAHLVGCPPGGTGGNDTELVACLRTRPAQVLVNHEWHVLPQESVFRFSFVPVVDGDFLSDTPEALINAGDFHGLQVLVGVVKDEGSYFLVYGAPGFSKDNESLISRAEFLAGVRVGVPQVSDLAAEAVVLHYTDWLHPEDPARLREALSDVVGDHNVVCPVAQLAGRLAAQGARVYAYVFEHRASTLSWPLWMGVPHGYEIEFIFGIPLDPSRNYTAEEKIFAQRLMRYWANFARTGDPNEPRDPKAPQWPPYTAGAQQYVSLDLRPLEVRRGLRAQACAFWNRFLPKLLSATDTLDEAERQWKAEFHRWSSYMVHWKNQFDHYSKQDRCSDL

SMILES | BChE % (inhibition) [1] [%] | BChE, Equivalent Concentration of Reference Compound Magniflorine [1] [µg/mL] | BChE, Equivalent Concentration of Reference Compound Rivastigmine [1] [µg/mL] | HORAC, Gallic Acid Equivalents [2] [µg/mL] | Reduction of viability of SCC-25 cells, compound combined with US [3] | Reduction of viability of SCC-25 cells, compound alone ([3]; MTT, compared to control) | GR Inhibition (%) [4] [%] | GR activity (NADPH consumption rate) [4] [nmol Depleted NADPH/min] | CAT Inhibition (%) [5] [%] | CAT Inhibition of the H2O2 Depletion [5] [mm/dm^3/min] | GPx Inhibition (%) [6] | GPx activity (NADPH consumption rate) [6] [nmol Depleted NADPH/min] | Inhibition of viability of FaDu cells, compound combined with US [7] | Equivalent Concentration of Acetylsalicylic Acid (COX-2) [8] [mg/mL] | AChE % (inhibition) [9] [%] | AChE, Equivalent Concentration of Reference Compound Magniflorine [9] [µg/mL] | AChE, Equivalent Concentration of Reference Compound Rivastigmine [9] [µg/mL] | pH of greatest stability of water solutions [10] | COX-2 Inhibition (%) [8]
COc1cc(/C=C/C(=O)c2ccccc2)ccc1O [Compound 1, 3-(4-hydroxy-3-methoxyphenyl)-1-phenylprop-2-en-1-one] | 78.0 ± 4.6 | 0.30 ± 0.02 | 0.23 ± 0.01 | 18.7 ± 3.8 | ~ 40% | no significant difference | 7.6 ± 2.4 | 286 ± 90 | 78.6 ± 2.8 | 0.26 ± 0.01 | 30.3 ± 3.6% | 60.3 ± 7.1 | significantly reduced viability | 6.1 ± 0.1 | 80.5 ± 8.2 | 0.31 ± 0.03 | 0.46 ± 0.05 |  | 
CC(C)Cc1ccc(C(C)C(=O)O)cc1 (centres unmarked) [Compound 4, ibuprofen, reference compound] |  |  |  | 35.7 ± 4.2 | no significant difference |  | 19.9 ± 1.1 | 747 ± 41 |  |  |  |  | no significant difference |  |  |  |  | 5–7 | 
O=C(/C=C/c1ccccc1)c1ccccc1 [Compound 5] | 58.1 ± 3.4 | 0.23 ± 0.01 | 0.17 ± 0.01 | 6.1 ± 2.5 |  |  | 29.1 ± 4.4 | 1093 ± 165 | 12.5 ±2.4 | 0.03 ± 0.01 | did not inhibit and - |  |  |  | 65.7 ± 4.7 | 0.25 ± 0.02 | 0.37 ± 0.03 |  | -
COc1ccc(/C=C/C(=O)c2ccccc2)cc1O [Compound 7, E-3-(3-hydroxy-4-methoxyphenyl)-1-phenylprop-2-en-1-one] | 94.4 ± 4.1 | 0.37 ± 0.02 | 0.27 ± 0.01 | 11.5 ± 1.3 |  |  | 41.8 ± 3.1 | 1570 ± 116 | 88.1 ± 4.0 | 0.22 ± 0.01 | 32.4 ± 2.8% | 64.4 ± 5.5 |  | 7.7 ± 0.1 | 89.8 ± 5.8 | 0.34 ± 0.01 | 0.51 ± 0.03 |  | 
